The nature of assay [1]: Metal chelating activity assessed as compound-Fe3+ complex formation by measuring decrease in fluorescence intensity by fluorescence emission spectral analysis.
A short description of assay [2]: Antioxidant activity assessed as superoxide anion radical scavenging activity by measuring reduction in cathode current by cyclic voltammetry. The class given is functional.
Assay [3] concerns the target Cholinesterase (Equus caballus) (UniProt P81908). Put plainly: Mixed type inhibition of equine serum BuChE assessed as decrease in Vmax with increase in Km by Lineweaver-Burk plot analysis. The class given is cell-free.
Assay [4] addresses T1, Cholinesterase (Equus caballus, UniProt P81908).
Description: Inhibition of equine serum BuChE by Ellman's method
In a further assay the target is Acetylcholinesterase (Electrophorus electricus, UniProt O42275). Nature of the assay: Inhibition of electric eel AChE by Ellman's method. (DTNB colorimetry detects thiols as they appear.)
Assay [5] can be described thus: Metal chelating activity assessed as compound-Zn2+ complex formation by UV spectrophotometric analysis.
Assay [6] addresses Amyloid-beta precursor protein (Homo sapiens) (UniProt P05067). Nature of the assay: Inhibition of amyloid beta (1 to 42) (unknown origin) self aggregation at 25 uM by Thioflavin T based fluorometric assay.
In assay [7] the target is Cholinesterase (Equus caballus) (UniProt P81908). Put plainly: (§1) Mixed type inhibition of equine serum BuChE by double reciprocal analysis. The class given is cell-free.
Assay [8] addresses T1, Cholinesterase. The description is as §1. The class given is cell-free.
Assay [9] can be described thus: Metal chelating activity assessed as compound-Cu2+ complex formation by UV spectrophotometric analysis.
Assay [10] is described as follows: Metal chelating activity assessed as compound-Cu2+ complex formation by fluorescence emission spectral analysis.
A short description of assay [11]: Metal chelating activity assessed as compound-Fe3+ complex formation by UV spectrophotometric analysis.
The nature of assay [12]: Metal chelating activity assessed as Cu2+-complex formation by measuring inhibition of Cu2+ induced amyloid beta (1 to 42) aggregation at 25 uM by Thioflavin T based fluorometric assay.
Assay [13] in a line: Antioxidant activity assessed as superoxide anion radical scavenging activity by measuring reduction in anode current by cyclic voltammetry. The class given is functional.
Assay [14] is described as follows: Metal chelating activity assessed as compound-Zn2+ complex formation by measuring new peak formation by fluorescence emission spectral analysis.

Activity calls are given as the source filed them. No cut-off for these calls is given here. Some results are limits rather than exact numbers.

Acetylcholinesterase, sequence (O42275 whole entry): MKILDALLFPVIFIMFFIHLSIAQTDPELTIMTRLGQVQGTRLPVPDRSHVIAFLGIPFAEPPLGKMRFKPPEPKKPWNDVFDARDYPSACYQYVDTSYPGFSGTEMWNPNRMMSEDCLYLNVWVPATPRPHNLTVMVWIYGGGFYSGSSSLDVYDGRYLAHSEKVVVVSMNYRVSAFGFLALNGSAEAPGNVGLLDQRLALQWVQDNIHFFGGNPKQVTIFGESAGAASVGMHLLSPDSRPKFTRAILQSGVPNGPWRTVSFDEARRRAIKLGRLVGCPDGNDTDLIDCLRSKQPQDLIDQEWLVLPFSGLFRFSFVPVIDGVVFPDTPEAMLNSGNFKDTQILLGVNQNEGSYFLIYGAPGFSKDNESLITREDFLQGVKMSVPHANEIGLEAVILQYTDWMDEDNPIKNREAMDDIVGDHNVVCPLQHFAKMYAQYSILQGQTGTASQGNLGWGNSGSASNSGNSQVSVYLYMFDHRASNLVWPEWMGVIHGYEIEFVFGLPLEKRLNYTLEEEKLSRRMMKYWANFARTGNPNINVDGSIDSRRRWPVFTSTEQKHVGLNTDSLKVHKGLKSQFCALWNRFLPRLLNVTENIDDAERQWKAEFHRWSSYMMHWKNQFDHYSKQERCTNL
Amyloid-beta precursor protein (Homo sapiens), sequence (P05067 whole entry): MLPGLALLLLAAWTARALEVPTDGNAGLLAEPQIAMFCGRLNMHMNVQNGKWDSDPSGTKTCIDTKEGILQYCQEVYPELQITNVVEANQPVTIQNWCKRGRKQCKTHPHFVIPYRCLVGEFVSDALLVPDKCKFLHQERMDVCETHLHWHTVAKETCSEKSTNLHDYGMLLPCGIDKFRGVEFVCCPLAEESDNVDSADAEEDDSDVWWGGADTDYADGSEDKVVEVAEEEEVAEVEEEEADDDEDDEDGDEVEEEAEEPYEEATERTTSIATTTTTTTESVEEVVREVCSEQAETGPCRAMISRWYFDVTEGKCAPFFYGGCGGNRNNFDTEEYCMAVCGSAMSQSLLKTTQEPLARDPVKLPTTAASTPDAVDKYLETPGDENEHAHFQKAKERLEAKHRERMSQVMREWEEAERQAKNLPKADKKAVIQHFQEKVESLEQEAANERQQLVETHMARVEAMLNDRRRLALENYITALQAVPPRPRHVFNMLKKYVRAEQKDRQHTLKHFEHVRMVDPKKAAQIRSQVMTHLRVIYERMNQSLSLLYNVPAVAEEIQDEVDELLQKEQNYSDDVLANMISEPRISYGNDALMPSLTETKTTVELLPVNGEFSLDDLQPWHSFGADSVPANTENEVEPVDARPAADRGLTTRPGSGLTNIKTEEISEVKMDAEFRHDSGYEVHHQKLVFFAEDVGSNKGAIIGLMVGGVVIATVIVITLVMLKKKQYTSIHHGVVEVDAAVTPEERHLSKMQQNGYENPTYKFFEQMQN
T1 sequence (P81908 whole entry): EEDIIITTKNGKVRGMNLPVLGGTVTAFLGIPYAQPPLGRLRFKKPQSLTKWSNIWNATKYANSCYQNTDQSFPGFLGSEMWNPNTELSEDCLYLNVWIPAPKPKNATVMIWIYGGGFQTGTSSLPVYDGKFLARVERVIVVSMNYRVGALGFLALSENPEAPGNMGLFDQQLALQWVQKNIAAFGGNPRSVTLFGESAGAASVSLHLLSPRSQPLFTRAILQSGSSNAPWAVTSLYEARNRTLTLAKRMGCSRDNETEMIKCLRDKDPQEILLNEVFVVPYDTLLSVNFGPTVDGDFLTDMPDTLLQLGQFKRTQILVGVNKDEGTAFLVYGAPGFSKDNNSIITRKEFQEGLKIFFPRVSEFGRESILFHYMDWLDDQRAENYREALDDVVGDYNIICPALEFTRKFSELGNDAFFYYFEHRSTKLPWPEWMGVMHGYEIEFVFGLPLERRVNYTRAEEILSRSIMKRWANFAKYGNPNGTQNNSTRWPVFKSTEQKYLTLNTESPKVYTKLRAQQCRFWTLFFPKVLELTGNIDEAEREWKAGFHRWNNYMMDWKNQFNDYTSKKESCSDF
Cholinesterase (Equus caballus), sequence (P81908 whole entry): as above

For orientation: inhibition means the relative decrease from the control value, in per cent. As usually defined, the IC50 is the concentration that inhibits the measured activity by half. Read a low IC50 as greater potency in that assay. The term Ki denotes a dissociation constant, usually derived from enzyme kinetics or from competition with a known ligand. Read a high Ki as lower affinity. Consider `O=C1CC(c2ccc(O)cc2)Oc2cc(OC(=O)N3CCCCC3)cc(O)c21` (centres undefined), for which the result in [1], in assay [2], in assay [5], in [9], in [11] and in [13] was Active. For the same molecule, in [14], the outcome was Active. The inhibition entry in assay [3] was “Active”. The IC50 was 0.094 µM against Cholinesterase [4] and 62.5 µM at Acetylcholinesterase. Further, the results for the inhibition in [6] and in assay [12] were 36.1% and 61.1%, respectively. In assay [7], this molecule yielded a Ks of 0.469 µM. At Cholinesterase [8], the affinity, expressed as Ki, was 1.6 µM. In addition, the outcome in assay [10] was inactive.
For the molecule `CN(C)C(=O)Oc1ccc(C2CC(=O)c3c(O)cc(OC(=O)N(C)C)cc3O2)cc1` (centres undefined), the outcome in [1], in assay [5], in assay [9], in assay [11] and in assay [14] was Active. For the same molecule, the IC50 against Cholinesterase [4] came out at 12.2 µM; against Acetylcholinesterase it was 23.9 µM. Moreover, the inhibition came to 62.4% in assay [6] and 53.5% in assay [12]. Besides, the result in assay [10] was inactive.
For the molecule `O=C1C[C@@H](c2ccc(O)cc2)Oc2cc(O)cc(O)c21` [NARINGENIN], the outcome in assay [2] and in assay [13] was Active. Further, the IC50 against Cholinesterase [4] and against Acetylcholinesterase was greater than 100 µM each time. Moreover, the figures for the inhibition in assay [6] and in [12] were 44.9% and 69.2%, respectively.
Turning to `O=C1CC(c2ccc(O)cc2)Oc2cc(OC(=O)N3CCOCC3)cc(O)c21` (centres undefined), the result in assay [1], in assay [9] and in assay [14] was Active. The IC50 was found to be 13.7 µM at Cholinesterase [4] and 12.9 µM at Acetylcholinesterase. Further, the values for the inhibition in assay [6] and in assay [12] were 62.3% and 60.9%, respectively. For the same molecule, the result in [10] was inactive.
With `CCN(C)C(=O)Oc1cc(O)c2c(c1)OC(c1ccc(O)cc1)CC2=O` (centres undefined), the result in assay [1], in [5], in [9] and in assay [14] was Active. In addition, the 50% inhibitory concentration (IC50) against Cholinesterase [4] was 3.42 µM; against Acetylcholinesterase it was 28.3 µM. The inhibition is 66.5% in [6] and 65.5% in assay [12]. Also, the result in assay [10] was inactive.
As to `COc1cc(/C=C/C(=O)CC(=O)/C=C/c2ccc(O)c(OC)c2)ccc1O`, in assay [12], the inhibition amounted to 73.3%.
